Assay results from US20080287445A1, “Prokineticin 2 receptor antagonists” (priority 2005, published 2008).
“And” between values parts separate entries of the source, which are not always exact repeats. Equal entries are not always repeated.

Target: T1, GPR73 (prokineticin 1 receptor) (Homo sapiens, UniProt Q8TCW9)
T1 construct: expressed in transfected cells; host or cells: HEK 293
Assay: PK1 functional assay: Ca2+ mobilization screening for PK1 antagonists on the FLIPR
Type: cell-based
Conditions: HEK 293 GPR73 cells, multiple values = multiple testing; for inhibition at 10 µM: HEK293, 10 μM compound, read-out: Ca^2+ Mobilization % Inh @ 10 μM; for IC50: PK1 ligand preparation at its EC50, read-out: Ca^2+ Mobilization IC50; for Ca^2+ Mobilization % Inh @ 10 μM: 10 μM compound
How it was run: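 HEK293 cells expressing human GPR73 were loaded with Calcium Plus dye, then on FLIPR given compound for 4 min 15 s before PK1 ligand at its predetermined EC50. Baseline-subtracted fluorescence over 1 min 45 s gave percent inhibition versus maximal signal; IC50 fitted.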

T1 sequence (Q8TCW9 whole entry, species assumed): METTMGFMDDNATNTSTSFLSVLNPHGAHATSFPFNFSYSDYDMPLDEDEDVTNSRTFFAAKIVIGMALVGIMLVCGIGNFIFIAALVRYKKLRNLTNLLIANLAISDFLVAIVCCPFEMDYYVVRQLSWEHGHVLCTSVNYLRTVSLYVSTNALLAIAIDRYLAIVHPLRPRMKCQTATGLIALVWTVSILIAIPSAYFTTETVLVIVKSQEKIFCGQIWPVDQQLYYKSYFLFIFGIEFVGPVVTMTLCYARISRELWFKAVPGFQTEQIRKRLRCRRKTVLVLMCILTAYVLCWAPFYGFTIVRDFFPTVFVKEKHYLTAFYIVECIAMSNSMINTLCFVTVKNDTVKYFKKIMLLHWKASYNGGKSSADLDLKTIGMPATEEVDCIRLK

| Compound | inhibition at 10 µM | IC50 | Ca^2+ Mobilization % Inh @ 10 μM |
| --- | --- | --- | --- |
| COc1ccc(Cn2c(=O)nc(NCc3cccnc3N)n(Cc3ccc(Cl)c(Cl)c3)c2=O)cc1 [Cpd 151] | 60% | 2400 nM | – |
| COc1ccc(Cn2c(=O)nc(NCc3cnc(C)cc3C)n(Cc3ccc(N4C(=O)c5ccccc5C4=O)cc3)c2=O)cc1 [Cpd 152] | 91% | 240 nM | – |
| COc1ccc(Cn2c(NCCc3ccccn3)nc(=O)n(Cc3ccc(OC)cc3)c2=O)cc1 [Cpd 154] | 79% | 657 nM and 952 nM | 80% |
| COc1ccc(Cn2c(=O)nc(NCc3c(C)cc(C)nc3N)n(Cc3cccc4[nH]ccc34)c2=O)cc1 [Cpd 155, 6-[(2-Amino-4,6-dimethyl-pyridin-3-ylmethyl)-amino]-1-(1H-indol-4-ylmethyl)-3-(4-methoxy-benzyl)-1H-[1,3,5]triazine-2,4-dione] | 98% | 2 nM and 7 nM | 100% |
| Nc1cccc(CNc2nc(=O)n(Cc3ccc(F)cc3)c(=O)n2Cc2ccc(OC(F)F)cc2)n1 [Cpd 156] | 70% | 3220 nM | – |
| COc1ccc(Cn2c(=O)nc(NCc3c(C)cc(C)nc3N)n(Cc3ccc4c(c3)CCO4)c2=O)cc1 [Cpd 157] | 92% | 4 nM and 11 nM | 96% |
| Cc1cc(C)c(CNc2nc(=O)n(Cc3ccc(I)cc3)c(=O)n2Cc2ccc(OC(F)F)cc2)cn1 [Cpd 159] | 31% | > 10000 nM | – |
| Cc1cc(C)c(CNc2nc(=O)n(Cc3ccc(F)cc3)c(=O)n2Cc2ccc(OC(F)F)cc2)cn1 [Cpd 160, 1-(4-Difluoromethoxy-benzyl)-6-[(4,6-dimethyl-pyridin-3-ylmethyl)-amino]-3-(4-fluoro-benzyl)-1H-[1,3,5]triazine-2,4-dione] | 71% | 628 nM | – |
| Cc1ccc(Cn2c(=O)nc(NCc3cnc(C)cc3C)n(Cc3ccc(OC(F)F)cc3)c2=O)cc1 [Cpd 161] | 53% | 4780 nM | – |
| Cc1cc(C)c(CNc2nc(=O)n(Cc3ccc(C(F)(F)F)cc3)c(=O)n2Cc2ccc(OC(F)F)cc2)cn1 [Cpd 162] | 31% | > 10000 nM | – |
| Cc1cc(C)c(CNc2nc(=O)n(Cc3ccc(C#N)cc3)c(=O)n2Cc2ccc(OC(F)F)cc2)cn1 [Cpd 164] | 64% | 2010 nM | – |
| Cc1cc(C)c(CNc2nc(=O)n(CCOc3ccccc3)c(=O)n2Cc2ccc(OC(F)F)cc2)cn1 [Cpd 166] | 73% | 1700 nM | – |
| Cc1cc(C)c(CNc2nc(=O)n(CCOc3ccc(F)cc3)c(=O)n2Cc2ccc(OC(F)F)cc2)cn1 [Cpd 167] | 65% | 2620 nM | – |
| Cc1cc(C)c(CNc2nc(=O)n(Cc3ccc(-c4csnn4)cc3)c(=O)n2Cc2ccc(OC(F)F)cc2)cn1 [Cpd 168] | 68% | 1520 nM | – |
| COc1ccc(Cn2c(=O)nc(NCc3cccnc3N)n(Cc3cccc4cc[nH]c34)c2=O)cc1 [Cpd 171] | 46% | > 10000 nM | – |

Next, values leading:

| inhibition at 10 µM | IC50 | Ca^2+ Mobilization % Inh @ 10 μM | Compound |
| --- | --- | --- | --- |
| 81% | 703 nM | – | COC(=O)CCCn1c(NCc2cnc(C)cc2C)nc(=O)n(Cc2ccc(OC)cc2)c1=O [Cpd 153] |
| 62% | 3840 nM | – | Cc1cc(C)c(CNc2nc(=O)n(Cc3ccc(-n4cccn4)cc3)c(=O)n2Cc2ccc(OC(F)F)cc2)cn1 [Cpd 158] |
| 38% | > 10000 nM | – | Cc1cc(C)c(CNc2nc(=O)n(Cc3ccc(OC(F)F)cc3)c(=O)n2Cc2ccc(OC(F)F)cc2)cn1 [Cpd 163] |
| 52% | 6150 nM | – | COC(=O)c1ccc(Cn2c(=O)nc(NCc3cnc(C)cc3C)n(Cc3ccc(OC(F)F)cc3)c2=O)cc1 [Cpd 165] |
| 78% | 226 nM and 973 nM | 86% | COc1ccc(Cn2c(CCc3cccnc3)cc(=O)n(Cc3ccc(OC)cc3)c2=O)cc1 [Cpd 169] |
| 96% | 32 nM | – | COc1ccc(Cn2c(=O)nc(NCc3cccnc3N)n(Cc3ccc4cc[nH]c4c3)c2=O)cc1 [Cpd 170] |
